According to PMC10442912 (2023):

Assays:
[1] = test system: CAP1 (DNA, aptamer) CGACATAGAGGATCCATCTTGGGGTGTGTAGTGTGTCG; assay: fluorescence titration; conditions: 10 mM Mg2+; 20 mM Tris-HCl pH 7.8; CAP1 titrated into 2.5 μM ThT
[2] = test system: CAP1 (DNA, aptamer) CGACATAGAGGATCCATCTTGGGGTGTGTAGTGTGTCG; assay: ThT fluorescence displacement; conditions: 10 mM Mg2+; 50 mM Tris-HCl pH 7.8; 1 μM aptamer, 0.5 μM ThT displaced
[3] = test system: CAP1 (DNA, aptamer) CGACATAGAGGATCCATCTTGGGGTGTGTAGTGTGTCG; assay: ITC; conditions: 300 mM Na+, 5 mM K+, 10 mM Mg2+; 50 mM Tris-HCl pH 7.8, 25 °C, preannealed
[4] = test system: CAP3 (DNA, aptamer) CGACCTAGTGTCCATCGTTCAGTTCCGATTTCTGGTCG; assay: ThT fluorescence displacement; conditions: 10 mM Mg2+; 50 mM Tris-HCl pH 7.8; 1 μM aptamer, 0.5 μM ThT displaced

Row | Kd [1] | Kd [2] | Kd [3] | Kd [4] | SMILES
1 | 2.3 µM |  |  |  | Cc1ccc2c(c1)sc(-c1ccc(N(C)C)cc1)[n+]2C
2 |  | 4.2 µM | 9.8 ± 0.5 µM | 46 µM | O=C(N[C@H](CO)[C@H](O)c1ccc([N+](=O)[O-])cc1)C(Cl)Cl
